Test results published in PMC6941357, “An in vitro toolbox to accelerate anti-malarial drug discovery and development” (Malaria Journal, 2020).
≈ marks a conversion by molar mass, not a printed value.

Tests used:
[1] = Plasma protein binding via ultracentrifugation (UC); format: in vitro ADME, human; conditions: human, pH 7.4, ultracentrifugation, read-out: Fraction unbound, human plasma
Description: Pooled human plasma (n = 3–4 donors) was obtained by centrifugation of blood (collected by the Australian Red Cross Blood Service, Melbourne, Australia or the Volunteer Blood Donor Registry, Clinical Translation Centre, Walter & Eliza Hall Institute of Medical Research, Parkville, Australia), or sourcing pooled plasma directly from commercial sources (Innovative Research Inc, MI) and stored frozen at − 80 °C.
(§1) An ultracentrifugation method adapted from a previous publication was initially used to assess plasma protein binding and binding in the other media. […] Additional ultracentrifuge tubes containing spiked matrix were maintained at 37 °C, 5% or 10% CO2 or normal atmosphere conditions, with aliquots being taken within 0.5 h of the start and at the end of ultracentrifugation to serve as controls for the assessment of stability and to obtain a measure of the total concentration (Ctotal). Following ultracentrifugation, the pH was checked and an aliquot of protein-free supernate was taken from each ultracentrifuge tube for determination of the unbound concentration (Cunbound).
(§2) Total matrix and protein free samples were analysed using a matrix matching approach whereby each sample was mixed in a 1:1 ratio with the opposite blank medium (i.e. blank total matrix or blank protein free buffer). For example, plasma samples were mixed with blank pH 7.4 buffer whereas plasma supernatant samples were mixed with blank plasma. Each of the sample sets were then assayed against a common calibration curve prepared in a 1:1 mixture of total matrix and protein free pH 7.4 buffer. […] The standard deviation for fu was calculated using the propagation of errors approach as described previously. The potential for compound degradation was assessed by comparing the average value for Ctotal at the start and end of the experiment.

[2] = Binding to human liver microsomes via ultracentrifugation; format: in vitro ADME; conditions: human, liver microsomes, pH 7.4, 0.4 mg/mL protein, read-out: Fraction unbound, HLM
Description: A suspension of human liver microsomes (HLM, XenoTech LLC, Lenexa, KS, USA) was prepared in 0.1 M phosphate buffer (pH 7.4) at a protein concentration of 0.4 mg/mL immediately prior to the experiment.
as §1, §2

CYP2D6 = CYP2D6 (Homo sapiens, UniProt P10635); experiment: Cytochrome P450 inhibition in human liver microsomes
Procedure, shortened: (§3)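 Activity of each isoform followed via a specific probe-substrate metabolite formed in human liver microsomes; reactions quenched with ice-cold acetonitrile and metabolite measured by LC–MS. Percent inhibition taken versus metabolite formation without inhibitor; Km from metabolite formation rate (pmol/min/mg protein) across substrate concentrations.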

CYP2C19 = CYP2C19 (Homo sapiens, UniProt P33261); experiment: as above
Procedure, shortened: as §3

CYP3A4 = CYP3A4 (Homo sapiens, UniProt P08684); experiment: as above
Procedure, shortened: as §3

CYP1A2 = target: T1, CYP1A2 (Homo sapiens, UniProt P05177); experiment: as above
T1 sequence (P05177 1-516): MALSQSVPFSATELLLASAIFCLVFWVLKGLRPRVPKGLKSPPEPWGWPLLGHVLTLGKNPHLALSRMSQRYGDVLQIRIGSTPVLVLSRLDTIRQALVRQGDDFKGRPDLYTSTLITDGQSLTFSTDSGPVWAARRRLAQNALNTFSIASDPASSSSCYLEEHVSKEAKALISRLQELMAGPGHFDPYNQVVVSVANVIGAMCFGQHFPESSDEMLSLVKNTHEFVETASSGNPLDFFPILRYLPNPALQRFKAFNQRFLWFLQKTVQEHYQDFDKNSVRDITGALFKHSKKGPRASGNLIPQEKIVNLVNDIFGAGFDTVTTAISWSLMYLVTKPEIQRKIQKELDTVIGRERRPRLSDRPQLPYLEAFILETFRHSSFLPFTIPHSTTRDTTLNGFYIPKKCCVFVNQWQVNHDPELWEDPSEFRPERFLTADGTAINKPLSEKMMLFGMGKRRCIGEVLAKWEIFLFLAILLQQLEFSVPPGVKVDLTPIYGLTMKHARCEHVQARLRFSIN
Procedure, shortened: as §3

[3] = Solubility limited absorbable dose (SLAD) calculation with predicted human jejunal Peff; conditions: for solubility: FaSSIF; for An (absorption number): Peff × tres/R, minimum 1; for Permeability classification: based on ref 80 and control compounds; for Predicted human Peff: from Caco-2 Papp via calibration plot
Source text: Predicted Peff values were obtained from a calibration plot of literature Peff values vs measured Caco-2 Papp using either buffer or plasma as the transport medium (see Results section).

CYP2C9 = CYP2C9 (Homo sapiens, UniProt P11712); experiment: Cytochrome P450 inhibition in human liver microsomes
Procedure, shortened: as §3

[4] = Octanol/pH 7.4 buffer partition coefficient, shake flask; conditions: octanol/pH 7.4 buffer; for logD: pH 7.4
Procedure, shortened: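 Octanol stocks (3-30 mg/mL) were diluted 3- and 10-fold and shaken with equal volumes of pH 7.4 phosphate buffer (67 mM, in 43 mM NaCl) at 37 °C. Both phases were quantified by LC-MS against calibration standards. The coefficient is the mean octanol/buffer concentration ratio, with two time points confirming equilibrium.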

[5] = neat pooled plasma, neat plasma
[6] = CYP3A4 (midaz) IC50, human liver microsomes, CYP3A4 (midaz), highest concentration tested 20 µM
[7] = CYP3A4 (test) IC50, human liver microsomes, CYP3A4 (test), highest concentration tested 20 µM

CYP3A4, sequence (P08684 whole entry): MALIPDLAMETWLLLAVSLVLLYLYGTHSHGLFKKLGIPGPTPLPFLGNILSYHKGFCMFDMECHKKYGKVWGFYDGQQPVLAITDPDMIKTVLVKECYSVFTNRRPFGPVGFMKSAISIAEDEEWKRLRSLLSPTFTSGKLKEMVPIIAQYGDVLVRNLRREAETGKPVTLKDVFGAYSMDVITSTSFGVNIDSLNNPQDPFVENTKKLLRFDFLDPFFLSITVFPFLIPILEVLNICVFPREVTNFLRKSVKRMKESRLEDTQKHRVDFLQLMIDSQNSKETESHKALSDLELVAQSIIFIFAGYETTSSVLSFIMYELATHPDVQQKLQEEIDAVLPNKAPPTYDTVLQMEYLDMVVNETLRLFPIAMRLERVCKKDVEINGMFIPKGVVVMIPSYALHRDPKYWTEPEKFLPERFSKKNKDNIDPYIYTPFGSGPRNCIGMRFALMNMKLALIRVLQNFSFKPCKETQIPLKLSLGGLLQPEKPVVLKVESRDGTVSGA
CYP2C19, sequence (P33261 whole entry): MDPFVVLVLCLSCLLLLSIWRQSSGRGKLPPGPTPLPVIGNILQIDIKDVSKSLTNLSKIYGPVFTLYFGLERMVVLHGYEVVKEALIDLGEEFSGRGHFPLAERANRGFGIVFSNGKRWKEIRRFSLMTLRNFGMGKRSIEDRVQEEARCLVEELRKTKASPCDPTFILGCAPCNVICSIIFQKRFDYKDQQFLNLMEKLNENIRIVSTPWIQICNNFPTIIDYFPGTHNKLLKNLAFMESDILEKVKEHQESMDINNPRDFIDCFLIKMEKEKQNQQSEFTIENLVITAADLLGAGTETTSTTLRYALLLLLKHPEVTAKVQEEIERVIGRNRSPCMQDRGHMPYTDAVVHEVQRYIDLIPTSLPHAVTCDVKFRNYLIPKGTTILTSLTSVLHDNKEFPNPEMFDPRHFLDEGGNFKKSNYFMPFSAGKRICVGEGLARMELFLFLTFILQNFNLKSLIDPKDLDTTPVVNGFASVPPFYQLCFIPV
CYP2C9, sequence (P11712 whole entry): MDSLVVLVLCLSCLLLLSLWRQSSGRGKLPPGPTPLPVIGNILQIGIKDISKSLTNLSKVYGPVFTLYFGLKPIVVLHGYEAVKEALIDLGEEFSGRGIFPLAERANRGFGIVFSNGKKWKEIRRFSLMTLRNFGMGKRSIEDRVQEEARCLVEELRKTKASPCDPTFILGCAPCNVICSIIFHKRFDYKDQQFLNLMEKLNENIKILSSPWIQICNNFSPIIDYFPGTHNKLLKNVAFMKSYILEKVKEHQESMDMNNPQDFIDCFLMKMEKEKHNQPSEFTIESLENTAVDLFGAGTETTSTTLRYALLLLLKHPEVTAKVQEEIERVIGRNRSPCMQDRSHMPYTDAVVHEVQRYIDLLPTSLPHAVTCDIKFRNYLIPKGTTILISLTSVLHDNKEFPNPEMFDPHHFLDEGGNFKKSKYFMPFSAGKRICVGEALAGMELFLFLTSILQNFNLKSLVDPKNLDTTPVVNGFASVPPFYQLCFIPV
CYP2D6, sequence (P10635 whole entry, canonical isoform): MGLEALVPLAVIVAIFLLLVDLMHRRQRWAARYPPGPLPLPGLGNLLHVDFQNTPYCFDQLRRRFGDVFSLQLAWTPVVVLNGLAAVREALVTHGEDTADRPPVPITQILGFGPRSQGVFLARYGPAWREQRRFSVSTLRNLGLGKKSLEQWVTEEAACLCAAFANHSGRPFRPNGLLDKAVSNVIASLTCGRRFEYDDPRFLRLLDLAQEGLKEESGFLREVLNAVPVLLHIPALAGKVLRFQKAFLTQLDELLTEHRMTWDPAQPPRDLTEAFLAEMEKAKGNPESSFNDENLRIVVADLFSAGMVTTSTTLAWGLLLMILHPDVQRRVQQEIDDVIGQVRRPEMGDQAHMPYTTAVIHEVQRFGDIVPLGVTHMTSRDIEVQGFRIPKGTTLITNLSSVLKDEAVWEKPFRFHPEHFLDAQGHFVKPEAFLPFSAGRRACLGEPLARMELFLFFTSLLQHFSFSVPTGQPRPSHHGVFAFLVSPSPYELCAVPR

Row | Structure (SMILES) | fraction unbound at […] [1, 5] | fraction unbound at […] [2] | IC50 (CYP2D6) | CYP2D6 % inhibition at max conc (CYP2D6; microsomes) | IC50 (CYP2C19) | CYP2C19 % inhibition at max conc (CYP2C19; microsomes) | IC50 (CYP3A4; [6]) | IC50 (CYP3A4; [7]) | CYP3A4 (test) % inhibition at max conc (CYP3A4; microsomes) | IC50 (CYP1A2) | CYP1A2 % inhibition at max conc (CYP1A2; microsomes) | solubility [3] | An (absorption number) [3] | SLAD ([3]; Ssi × V (500 mL) × Mp) | Permeability classification [3] | Predicted human Peff [3] | IC50 (CYP2C9) | CYP2C9 % inhibition at max conc (CYP2C9; microsomes) | CYP3A4 (midaz) % inhibition at max conc (CYP3A4; microsomes) | other results
1 | Clc1ccc2c(N3CCN(CCCN4CCN(c5ccnc6cc(Cl)ccc56)CC4)CC3)ccnc2c1 [Piperaquine] | 0.042 | 0.013 ± 0.002 | > 20 µM | nmi | > 20 µM | nmi | 4.5 µM | > 20 µM | nmi | > 20 µM | nmi | 103 µg/mL (≈ 192 µM) | 13 | 685 mg | High (> 85% absorption (high)) | 11 10^−4 cm/s | – | – | – | Ki (CYP3A4; CYP3A4 (midaz) Ki, human liver microsomes, CYP3A4 (midaz)): 3.2 µM
2 | COc1ncnc(NS(=O)(=O)c2ccc(N)cc2)c1OC [Sulfadoxine] | 0.036 ± 0.001 | 0.93 ± 0.086 | > 20 µM | nmi | > 20 µM | nmi | – | – | nmi | > 20 µM | nmi | 858 µg/mL (≈ 2760 µM) | 2.2 | 959 mg | High (> 85% absorption (high)) | 1.9 10^−4 cm/s | > 20 µM | nmi | nmi | –
3 | C[C@H]1c2cccc(O)c2C(=O)C2=C(O)[C@]3(O)C(=O)C(C(N)=O)=C(O)[C@@H](N(C)C)[C@@H]3[C@@H](O)[C@@H]21 [Doxycyclin] | 0.23 | 0.93 ± 0.045 | > 20 µM | nmi | > 20 µM | nmi | > 20 µM | > 20 µM | – | – | – | > 2000 µg/mL | 1.0 | > 1000 mg | Intermediate (50–84% absorption (intermediate)) | 0.70 10^−4 cm/s | > 20 µM | nmi | nmi | inhibition at 20 µM (CYP3A4; human, microsomes, pH 7.4, CYP3A4 (test) % inhibition at max conc): 22%
4 | C[C@H]1[C@H](OC(=O)CCC(=O)O)O[C@@H]2O[C@@]3(C)CC[C@H]4[C@H](C)CC[C@@H]1[C@@]24OO3 [Artesunate] | – | – | > 20 µM | nmi | > 20 µM | nmi | – | – | nmi | 20 µM | – | 1690 µg/mL (≈ 4400 µM) | 1.0 | 845 mg | Intermediate (50–84% absorption (intermediate)) | 0.66 10^−4 cm/s | > 20 µM | nmi | nmi | fraction unbound at […] ([1]; pooled plasma, instability evident, estimate only): 0.27 ± 0.008; IC50 (CYP3A4; human, microsomes, pH 7.4, CYP3A4 (test) IC50): > 20 µM; Ki (CYP1A2): 12 µM
5 | CCNCc1cc(Nc2ccnc3cc(Cl)ccc23)ccc1O [Desethylamodiaquine] | 0.17 ± 0.002 | – | 2.6 µM | – | > 18 µM | nmi | > 18 µM | – | – | > 18 µM | nmi | – | – | – | – | – | > 18 µM | nmi | nmi | Ki (CYP2D6): 1.6 µM; logD [4]: 1.3
6 | Cc1cc(Nc2ccc(S(F)(F)(F)(F)F)cc2)n2nc(C(C)(F)F)nc2n1 [DSM265] | 0.008 | – | – | – | – | – | – | – | – | – | – | – | 5.7 | 14 mg | High (> 85% absorption (high)) | 4.8 10^−4 cm/s | – | – | – | logD [4]: 4.03
7 | CC1(C)N=C(N)N=C(N)N1c1ccc(Cl)cc1 [Cycloguanil] | 0.75 ± 0.04 | 0.72 ± 0.083 | 6 µM | – | > 20 µM | nmi | > 20 µM | > 20 µM | nmi | > 20 µM | nmi | – | – | – | – | – | > 20 µM | nmi | nmi | Ki (CYP2D6): 3.7 µM
8 | CCN(CC)CCCNc1ccnc2cc(Cl)ccc12.Cl.Cl [AQ-13] | – | – | – | – | – | nmi | – | – | nmi | – | nmi | – | 2.2 | – | High (> 85% absorption (high)) | 1.9 10^−4 cm/s | – | nmi | nmi | IC50 (CYP2C9; microsomes): > 20 µM; IC50 (CYP2D6; microsomes): 13 µM; Ki (CYP2D6; microsomes): 8.3 µM; IC50 (CYP2C19; microsomes): > 20 µM; IC50 (CYP3A4; microsomes): > 20 µM; IC50 (CYP1A2; microsomes): > 20 µM; SLAD [3]: > 2250 mg; Ssi (estimated solubility in the small intestine) ([3]; based on measured FaSSIF solubility): > 2000 µg/mL; Measured Log D7.4 ([4]; shake flask, 37 °C): 1.30
